According to patent US11684614B2, “Formulations of hydroxypyridonate actinide/lanthanide decorporation agents” (priority 2017, dated 2023):
Values joined by “and” are separate entries in the source; they are usually repeats but may differ in a detail not shown here. Equal entries are not always repeated.

Assay: Repeated-treatment efficacy for removing an intravenous dose of 238Pu (excretion, tissue retention, clinical observations), female and male arms;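 for % Recovered Dose ART: abdominal tissue remainder incl GI tract reproductive organs spleen bladder and fat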
Type: in vivo, Swiss-Webster mice
Conditions: male animals, listed as 3,4,3-LI(1,2-HOPO); for % Recovered Dose Urine per Day, Day 3 / % Recovered Dose Urine per Day, Day 4 / % Recovered Dose Urine per Day, Day 5 / % Recovered Dose Urine per Day, Day 6 / % Recovered Dose Urine per Day, Day 7 / % Recovered Dose Urine per Day, Day 2 / % Recovered Dose Urine per Day, Day 1: Day 7 necropsy
Protocol: The objective of this study was to characterize the efficacy of 3,4,3-L1(1,2-HOPO) at enhancing elimination from an internal plutonium burden in female and male Swiss-Webster mice administered a soluble citrate complex of ^238Pu and treated multiple times, starting at 24 hours after the exposure. Efficacy was evaluated by comparing the tissue contents, urinary and fecal excretions of ^238Pu in treated animals versus untreated animals.
The medical countermeasure 3,4,3-L1(1,2-HOPO) was administered parenterally (ip) or orally (po) via consecutive injections or gavages (six daily or twelve twice daily) starting at 24 hours post contamination at the following four selected doses: 30 μmol/kg ip, 150 μmol/kg po, 300 μmol/kg po, and 600 μmol/kg po (equivalent to respective approximate human doses range of […], using the accepted conversion system of mouse doses into human equivalent doses—HED—based on body surface area). Oral doses also included the permeability enhancer selected during formulation development work.
• Challenge isotope: ^238Pu • Challenge dose: 25 nCi (i.e., approximately 0.8 μCi/kg) • Route of contamination: Intravenous (iv) tail-vein • Route of treatment: Intraperitoneal Injection (ip) or Oral (po) • Frequency of treatment: Multiple (once- or twice-daily for 6 days) doses, starting 24 hr postcontamination • Treatment dose calculation: Dose calculations (mg/kg or μmol/kg) for the decorporation agent were based on the individual body weight measured after contamination. • Study Duration: 11 days, in-life
c. […] Test article and control dose formulations were prepared within 1 day of dose administration, by weighing out the appropriate amount of test article, dispersing in vehicle. For ip solutions, the test article was used alone, while for oral suspensions, a mixture of test article and excipient (90:10, w:w) was used. The pH was adjusted to 7.0-7.4 for ip administration and 5.0-5.5 for oral administration with sterile NaOH. Dose formulations were prepared at room temperature and filter-sterilized. • Storage: 2-8° C.; refrigerated; protected from light. • Characterization: The concentration of each test article formulation was verified by high-performance liquid chromatography-mass spectrometry. • Test Article Handling: Test, reference, and control article formulations were handled with the use of eye protection, gloves, and a protective laboratory coat. • Correct Dose Assurance: The test article was weighed with calibrated balances. The administration of each dose formulation was properly documented, and the amount administered to each animal recorded.
e. Experimental Procedures (In-Life Evaluations and Euthanasia) • Contamination: Single administration by intravenous (iv) tail-vein injection (0.2 mL injection volume) under isoflurane anesthesia. Three standard 0.2 mL injections were performed into polyethylene bottles and pre-loaded with aliquots of concentrated nitric acid on each injection day. Six female and six male mice were culled for necropsy 1 hr post-contamination and were used as standards. A11 standards were processed and counted together with the final samples to allow verification of the contamination dose. • Dose Administration: Single administration by intraperitoneal injection (ip) or oral gavage (po) under isoflurane anesthesia. • Mortality/Morbidity: Assessed at least once daily. • Clinical Observations: Recorded once daily (4 hr post-dose on day of treatment), or more often as clinical signs warranted. […]

O=C(NCCCN(CCCCN(CCCNC(=O)c1cccc(=O)n1O)C(=O)c1cccc(=O)n1O)C(=O)c1cccc(=O)n1O)c1cccc(=O)n1O [3,4,3-L1(1,2-HOPO)]
% Recovered Dose Urine per Day, Day 3 (animal group B): 0.61% and 1.15% and 1.12% and 1.18% | % Recovered Dose Urine per Day, Day 4 (animal group B): 1.30% and 0.41% and 0.54% and 0.89% | % Recovered Dose Urine per Day, Day 5 (animal group B): 0.61% and 0.58% and 0.10% and 0.65% | % Recovered Dose Urine per Day, Day 6 (animal group B): 0.18% and 0.64% and 0.10% | % Recovered Dose Urine per Day, Day 7 (animal group B): 0.17% and 0.37% and 0.28% and 0.50% | % Recovered Dose Urine per Day, Day 2 (animal group C): 1.72% and 4.28% and 3.19% and 0.38% | % Recovered Dose Urine per Day, Day 3 (animal group C): 0.95% and 1.32% and 0.98% and 0.50% | % Recovered Dose Urine per Day, Day 4 (animal group C): 0.59% and 1.17% and 0.68% and 0.55% | % Recovered Dose Urine per Day, Day 5 (animal group C): 0.35% and 0.65% and 0.33% and 0.19% | % Recovered Dose Urine per Day, Day 6 (animal group C): 0.19% and 0.70% and 0.52% and 0.07% | % Recovered Dose Urine per Day, Day 7 (animal group C): 0.10% and 0.94% and 0.45% and 0.11% | % Recovered Dose Urine per Day, Day 1 (animal group E): 21.72% and 14.01% and 18.66% and 17.47% | % Recovered Dose Urine per Day, Day 2 (animal group E): 3.64% and 2.67% and 3.46% and 2.04% | % Recovered Dose Urine per Day, Day 3 (animal group E): 1.49% and 0.90% and 1.61% and 1.12% | % Recovered Dose Urine per Day, Day 4 (animal group E): 0.67% and 0.69% and 0.59% and 0.53% | % Recovered Dose Urine per Day, Day 5 (animal group E): 0.39% and 0.62% and 0.41% | % Recovered Dose Urine per Day, Day 6 (animal group E): 0.49% and 0.53% and 0.46% and 0.31% | % Recovered Dose Urine per Day, Day 7 (animal group E): 0.21% and 0.41% and 0.23% and 0.27% | % Recovered Dose Urine per Day, Day 1 (animal group F): 19.31% and 19.65% and 13.22% and 25.18% | % Recovered Dose Urine per Day, Day 2 (animal group F): 3.62% and 1.94% and 2.38% and 2.07% | % Recovered Dose Urine per Day, Day 3 (animal group F): 1.51% and 1.15% and 1.06% | % Recovered Dose Urine per Day, Day 4 (animal group F): 0.98% and 0.55% and 0.74% and 0.83% | % Recovered Dose Urine per Day, Day 5 (animal group F): 0.45% and 0.42% and 0.47% and 0.41% | % Recovered Dose Urine per Day, Day 6 (animal group F): 0.45% and 0.47% and 0.36% and 0.29% | % Recovered Dose Urine per Day, Day 7 (animal group F): 0.55% and 0.40% and 0.72% and 0.26% | % Recovered Dose ART (Day-7 necropsy, animal group B): 2.16% and 1.57% and 1.65% and 1.32% | % Recovered Dose Combined Body (Day-7 necropsy, animal group B): 52.05% and 37.93% and 50.13% and 45.55% | % Recovered Dose Combined Excreta (Day-7 necropsy, animal group B): 47.95% and 62.07% and 49.87% and 54.45% | % Recovered Dose Kidney (Day-7 necropsy, animal group B): 0.29% and 0.25% and 0.26% and 0.45% | % Recovered Dose SKEL (Day-7 necropsy, animal group B): 15.55% and 20.00% and 23.24% and 20.71% | % Recovered Dose SOFT (Day-7 necropsy, animal group B): 3.27% and 3.41% and 2.67% and 3.29% | % Recovered Dose Total Feces (Day-7 necropsy, animal group B): 22.40% and 40.49% and 26.02% and 32.13% | % Recovered Dose Total Urine (Day-7 necropsy, animal group B): 25.54% and 21.58% and 23.85% and 22.32% | % Recovered Dose ART (Day-7 necropsy, animal group C): 1.42% and 1.55% and 1.84% and 1.39% | % Recovered Dose Combined Body (Day-7 necropsy, animal group C): 44.39% and 38.12% and 45.21% and 38.36% | % Recovered Dose Combined Excreta (Day-7 necropsy, animal group C): 55.61% and 61.88% and 54.79% and 61.64%
